One assay addresses RAF kinases (Homo sapiens, UniProt P15056). In words: biochemical.
For assay [1], the system named is MEK1 phosphorylation in the A375 human melanoma cell line. As to the kind of experiment: cells. The conditions noted are these: A-375, read-out: pMEK IC50.
Another assay relates to A375 cells. In words: cells. Conditions: Homo sapiens, A-375, read-out: A375 Viability EC50.

A value given as a limit tells only on which side of the number the result lay.

RAF kinases, sequence (P15056 whole entry): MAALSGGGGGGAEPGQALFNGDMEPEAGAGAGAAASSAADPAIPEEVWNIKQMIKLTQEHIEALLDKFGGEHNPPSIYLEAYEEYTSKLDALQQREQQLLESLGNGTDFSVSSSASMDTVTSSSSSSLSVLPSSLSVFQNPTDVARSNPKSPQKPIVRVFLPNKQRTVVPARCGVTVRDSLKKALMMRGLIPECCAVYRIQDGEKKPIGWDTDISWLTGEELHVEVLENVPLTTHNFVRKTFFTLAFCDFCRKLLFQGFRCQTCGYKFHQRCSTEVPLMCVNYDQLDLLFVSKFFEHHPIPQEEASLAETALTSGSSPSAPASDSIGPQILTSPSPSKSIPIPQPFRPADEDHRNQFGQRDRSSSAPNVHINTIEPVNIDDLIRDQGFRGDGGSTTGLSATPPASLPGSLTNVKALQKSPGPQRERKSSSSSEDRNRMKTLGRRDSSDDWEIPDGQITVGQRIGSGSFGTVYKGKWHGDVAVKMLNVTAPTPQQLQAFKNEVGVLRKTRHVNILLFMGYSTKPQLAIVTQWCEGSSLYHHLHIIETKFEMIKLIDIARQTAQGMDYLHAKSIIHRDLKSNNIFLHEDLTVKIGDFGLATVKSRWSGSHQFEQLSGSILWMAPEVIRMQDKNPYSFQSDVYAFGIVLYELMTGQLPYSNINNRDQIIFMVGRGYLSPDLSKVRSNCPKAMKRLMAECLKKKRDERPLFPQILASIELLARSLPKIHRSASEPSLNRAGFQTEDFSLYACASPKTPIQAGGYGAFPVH

At RAF kinases, `COc1cc2ncnc(Oc3cccc(NC(=O)Nc4cc(C(C)(C)C)on4)c3)c2cc1OCCN1CCCCC1` [Ex 16, 1-(5-tert-butylisoxazol-3-yl)-3-(3-(7-methoxy-6-(2-(piperidin-1-yl)ethoxy)quinazolin-4-yloxy)phenyl)urea] returned a dissociation constant Kd of 500 to 1000 nM. In addition, in assay [1], the concentration for half-maximal inhibition (IC50) lay within 250 to 500 nM. Further, the EC50 with A375 cells was > 1000 nM.

As to `COc1cc2ncnc(Oc3cccc(NC(=O)Nc4cc(C(C)(C)C)on4)c3)c2cc1OCCCN1CCOCC1` [Ex 22, 1-(5-tert-butylisoxazol-3-yl)-3-(3-(7-methoxy-6-(3-morpholinopropoxy)quinazolin-4-yloxy)phenyl)urea], the 50% inhibitory concentration (IC50) in assay [1] was < 250 nM. For the same compound, the EC50 with A375 cells is < 250 nM.

For `COc1cc2ncnc(Sc3cccc(NC(=O)Nc4cc(C(C)(C)C)on4)c3)c2cc1OCCCS(C)(=O)=O` [Ex 64, 1-(5-tert-butylisoxazol-3-yl)-3-(3-(7-methoxy-6-(3-(methylsulfonyl)propoxy)quinazolin-4-ylthio)phenyl)urea], the IC50 in assay [1] was < 250 nM. For the same compound, in the assay with A375 cells, the EC50 was 250 to 500 nM.

Turning to `COc1cc2ncnc(Sc3cccc(NC(=O)Nc4cc(C(C)(C)C)on4)c3)c2cc1OCCN1CCS(=O)(=O)CC1` [Ex 71, 1-(5-tert-butyl-isoxazol-3-yl)-3-(3-{6-[2-(1,1-dioxo-thiomorpholin-4-yl)-ethoxy]-7-methoxy-quinazolin-4-ylsulfanyl}-phenyl)-urea], the IC50 in assay [1] is < 250 nM. Further, the concentration for a half-maximal effect (EC50) in the assay on A375 cells lay in the range of 250 to 500 nM. The like results for `COc1cc2ncnc(Sc3cccc(NC(=O)Nc4cc(C(C)(C)C)on4)c3)c2cc1OCCS(C)(=O)=O` [Ex 88, 1-(5-tert-butylisoxazol-3-yl)-3-(3-(7-methoxy-6-(2-(methylsulfonyl)ethoxy)quinazolin-4-ylthio)phenyl)urea] were, in that order, < 250 nM and 500 to 1000 nM. On to `COc1cc2nc(Cl)nc(Sc3cccc(NC(=O)Nc4cc(C(C)(C)C)on4)c3)c2cc1OC` [Ex 89, 1-(5-tert-butylisoxazol-3-yl)-3-(3-(2-chloro-6,7-dimethoxyquinazolin-4-ylthio)phenyl)urea], for which the IC50 in assay [1] was > 1000 nM. Turning to `COc1cc2c(Oc3cccc(NC(=O)Nc4cc(C(C)(C)C)on4)c3)ncnc2cc1OC[C@H](O)CN1CCN(C)CC1` [Ex 100, (R)-1-(5-tert-butylisoxazol-3-yl)-3-(3-(7-(2-hydroxy-3-(4-methylpiperazin-1-yl)propoxy)-6-methoxyquinazolin-4-yloxy)phenyl)urea], the IC50 in assay [1] is < 250 nM. In addition, the EC50 in the assay with A375 cells is < 250 nM.

On to `COc1cc2c(Oc3cccc(NC(=O)Nc4cc(C(C)(C)C)on4)c3)ncnc2cc1O[C@H]1CCN(CC(F)(F)F)C1` [Ex 104, (S)-1-(5-tert-butylisoxazol-3-yl)-3-(3-{6-methoxy-7-[1-(2,2,2-trifluoroethyl)pyrrolidin-3-yloxy]quinazolin-4-yloxy}phenyl)urea], for which the half-inhibitory concentration (IC50) in assay [1] lay in the range of 500 to 1000 nM. Also, the EC50 with A375 cells is > 1000 nM. The like results for `COc1cc2c(Oc3cccc(NC(=O)Nc4cc(C(C)(C)C)on4)c3)ncnc2cc1OC1CCN(CC(F)F)CC1` [Ex 105, 1-(5-tert-butylisoxazol-3-yl)-3-(3-{7-[1-(2,2-difluoroethyl)piperidin-4-yloxy]-6-methoxyquinazolin-4-yloxy}phenyl)urea] were, in that order, > 1000 nM and > 1000 nM. The like results for `COc1cc2ncnc(Oc3cccc(NC(=O)Nc4cc(C(C)(C)C)on4)c3)c2cc1O[C@H]1CCN(C)C1` [Ex 109, (S)-1-(5-tert-butylisoxazol-3-yl)-3-(3-(7-methoxy-6-(1-methylpyrrolidin-3-yloxy)quinazolin-4-yloxy)phenyl)urea] were, in that order, < 250 nM and 250 to 500 nM.

Take `COc1cc2ncnc(Oc3cccc(NC(=O)Nc4cc(C(C)C)no4)c3)c2cc1OC` [Ex 122, 1-(3-(6,7-dimethoxyquinazolin-4-yloxy)phenyl)-3-(3-isopropylisoxazol-5-yl)urea]: the half-inhibitory concentration (IC50) in assay [1] was 250 to 500 nM. Moreover, the EC50 in the assay with A375 cells is > 1000 nM. Regarding `COc1cc2ncnc(Oc3cccc(NC(=O)Nc4cc(C5CC5)no4)c3)c2cc1OC` [Ex 124, 1-(3-cyclopropylisoxazol-5-yl)-3-(3-(6,7-dimethoxyquinazolin-4-yloxy)phenyl)urea], the IC50 in assay [1] was > 1000 nM. In addition, the concentration giving a half-maximal response (EC50) in the assay on A375 cells was > 1000 nM. For the compound `COc1cc2ncnc(Oc3cccc(NC(=O)Nc4cc(C5(C)CC5)on4)c3)c2cc1OC` [Ex 127, 1-(3-(6,7-dimethoxyquinazolin-4-yloxy)phenyl)-3-(5-(1-methylcyclopropyl)isoxazol-3-yl)urea], the concentration for half-maximal inhibition (IC50) in assay [1] lay within 250 to 500 nM. Also, in the assay on A375 cells, the EC50 is > 1000 nM. Consider `COCC(C)(C)c1cc(NC(=O)Nc2cccc(Oc3ncnc4cc(OC)c(OC)cc34)c2)on1` [Ex 128, 1-(3-(6,7-dimethoxyquinazolin-4-yloxy)phenyl)-3-(3-(1-methoxy-2-methylpropan-2-yl)isoxazol-5-yl)urea], for which, in assay [1], the IC50 lay in the range of 500 to 1000 nM. For the same compound, the EC50 with A375 cells is > 1000 nM. For `COc1cc2ncnc(Oc3cccc(NC(=O)Nc4cc(C(C)C)on4)c3)c2cc1OC` [Ex 133, 1-(3-(6,7-dimethoxyquinazolin-4-yloxy)phenyl)-3-(5-isopropylisoxazol-3-yl)urea], the IC50 in assay [1] is 250 to 500 nM. For the same compound, the EC50 with A375 cells lay in the range of 500 to 1000 nM.

On to `COc1cc2ncnc(Sc3cccc(NC(=O)Nc4cc(C(C)C)on4)c3)c2cc1OC` [Ex 134, 1-(3-(6,7-dimethoxyquinazolin-4-ylthio)phenyl)-3-(5-isopropylisoxazol-3-yl)urea], for which, in assay [1], the IC50 was 250 to 500 nM. In the assay with A375 cells, the half-maximal effective concentration (EC50) was > 1000 nM. Turning to `COc1cc2ncnc(Oc3cccc(NC(=O)Nc4cc(C5CCCC5)on4)c3)c2cc1OC` [Ex 135, 1-(5-cyclopentylisoxazol-3-yl)-3-(3-(6,7-dimethoxyquinazolin-4-yloxy)phenyl)urea], the IC50 in assay [1] was < 250 nM. In addition, the EC50 in the assay with A375 cells was 250 to 500 nM. As for `COc1cc2ncnc(Oc3cccc(NC(=O)Nc4cc(C(C)(C)F)on4)c3)c2cc1OC` [Ex 136, 1-(3-(6,7-dimethoxyquinazolin-4-yloxy)phenyl)-3-(5-(2-fluoropropan-2-yl)isoxazol-3-yl)urea], the IC50 in assay [1] is < 250 nM. In addition, the EC50 in the assay with A375 cells lay within 250 to 500 nM. Take `COCCOc1cc2ncnc(Oc3cccc(NC(=O)Nc4ccc(OC)c(C(F)(F)F)c4)c3)c2cc1OC` [Ex 139, 1-(4-methoxy-3-(trifluoromethyl)phenyl)-3-(3-(6-methoxy-7-(2-methoxyethoxy)quinazolin-4-yloxy)phenyl)urea]: in assay [1], the IC50 is 250 to 500 nM. Further, in the assay on A375 cells, the EC50 is > 1000 nM. The like results for `COc1cc2ncnc(Oc3cccc(NC(=O)Nc4cc(C(F)(F)F)ccn4)c3)c2cc1OC` [Ex 141, 1-(3-(6,7-dimethoxyquinazolin-4-yloxy)phenyl)-3-(4-(trifluoromethyl)pyridin-2-yl)urea] were, in that order, 500 to 1000 nM and > 1000 nM. With `COc1cc2ncnc(Sc3cccc(NC(=O)Nc4cc(C(C)(C)C)nn4-c4ccccc4)c3)c2cc1OC` [Ex 154, 1-(3-tert-butyl-1-phenyl-1H-pyrazol-5-yl)-3-(3-(6,7-dimethoxyquinazolin-4-ylthio)phenyl)urea], the IC50 in assay [1] is < 250 nM. For the compound `COc1cc2ncnc(Oc3cccc(NC(=O)Nc4cc(C(F)(F)F)nn4C)c3)c2cc1OC` [Ex 164, 1-[3-(6,7-dimethoxyquinazolin-4-yloxy)phenyl]-3-[1-methyl-3-(trifluoromethyl)-1H-pyrazol-5-yl]urea], the half-maximal inhibitory concentration (IC50) in assay [1] fell in the range of 250 to 500 nM. The concentration giving a half-maximal response (EC50) in the assay on A375 cells was > 1000 nM. For the compound `COc1cc2ncnc(Oc3cccc(NC(=O)Nc4cc(C(F)(F)F)n(C)n4)c3)c2cc1OC` [Ex 165, 1-[3-(6,7-dimethoxyquinazolin-4-yloxy)phenyl]-3-[1-methyl-5-(trifluoromethyl)-1H-pyrazol-3-yl]urea], the IC50 in assay [1] lay within 250 to 500 nM. Also, in the assay with A375 cells, the EC50 was in the range of 500 to 1000 nM. As to `COc1cc2ncnc(Oc3cccc(NC(=O)Nc4cc(C(C)(CF)CF)nn4-c4ccccc4)c3)c2cc1OC` [Ex 167, 1-[3-(1,3-difluoro-2-methylpropan-2-yl)-1-phenyl-1H-pyrazol-5-yl]-3-[3-(6,7-dimethoxyquinazolin-4-yloxy)phenyl]urea], the IC50 in assay [1] was < 250 nM. In addition, in the assay on A375 cells, the EC50 lay in the range of 500 to 1000 nM.

`COc1cc2ncnc(Oc3cccc(NC(=O)Nc4cc(C(F)(F)F)n(-c5ccccc5)n4)c3)c2cc1OC` [Ex 169, 1-[3-(6,7-dimethoxyquinazolin-4-yloxy)phenyl]-3-[1-phenyl-5-(trifluoromethyl)-1H-pyrazol-3-yl]urea]: in assay [1], the IC50 lay within 250 to 500 nM. For the same compound, the EC50 in the assay with A375 cells is > 1000 nM. The like results for `COc1cc2ncnc(Oc3cccc(NC(=O)Nc4ccc(Cl)cc4)c3)c2cc1OC` [Ex 175, 1-(4-chlorophenyl)-3-(3-(6,7-dimethoxyquinazolin-4-yloxy)phenyl)urea] were, in that order, > 1000 nM and > 1000 nM. The like results for `COc1ccc(NC(=O)Nc2cccc(Oc3ncnc4cc(OC)c(OC)cc34)c2)cc1Cl` [Ex 180, 1-(3-chloro-4-methoxyphenyl)-3-(3-(6,7-dimethoxyquinazolin-4-yloxy)phenyl)urea] were, in that order, > 1000 nM and > 1000 nM. The like results for `COc1cc2ncnc(Oc3cccc(NC(=O)Nc4cccc(C(F)(F)F)c4)c3)c2cc1OC` [Ex 181, 1-(3-(6,7-dimethoxyquinazolin-4-yloxy)phenyl)-3-(3-(trifluoromethyl)phenyl)urea] were, in that order, > 1000 nM and > 1000 nM. In the case of `COc1cc2ncnc(Sc3cccc(NC(=O)Nc4cc(C(F)(F)F)nn4C)c3)c2cc1OC` [Ex 193, 1-[3-(6,7-dimethoxyquinazolin-4-ylthio)phenyl]-3-[1-methyl-3-(trifluoromethyl)-1H-pyrazol-5-yl]urea], the IC50 in assay [1] is < 250 nM. Also, the EC50 with A375 cells fell in the range of 500 to 1000 nM.

On to `COc1cc2ncnc(Sc3cccc(NC(=O)Nc4cc(C(C)(CF)CF)nn4-c4ccccc4)c3)c2cc1OC` [Ex 196, 1-[3-(1,3-difluoro-2-methylpropan-2-yl)-1-phenyl-1H-pyrazol-5-yl]-3-[3-(6,7-dimethoxyquinazolin-4-ylthio)phenyl]urea], for which the IC50 in assay [1] was < 250 nM. Besides, in the assay with A375 cells, the EC50 was > 1000 nM.

The values above are taken from patent US8618289B2 (Ambit Biosciences Corporation, priority 2008, dated 2013).
